Results taken from US11136311B2, “Heteroaromatic derivatives as NIK inhibitors” (Janssen Pharmaceutica NV, priority 2016, dated 2021).

Columns and labels:
[1] = test system: P-IKKα levels in L363 cells; test: Effect of compounds on P-IKKα levels in L363 (NIK translocated multiple myeloma) cells; assay type: cell-based, human; conditions: Homo sapiens, L-363, L363 cells; averaged values; read-out: Inhibition of pIKKα_L-363 (IC50 (nM))
Procedure, shortened: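 L363 myeloma cells were primed 24 h with BAFF, then treated 2 h with compound (8-point, 1:3 dilutions, 1% DMSO) at 37°C. P-IKKα in lysates was measured by Mesoscale sandwich immunoassay, with the full-inhibition blank subtracted. IC50 came from a sigmoidal fit of % inhibition of control against log concentration.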

JJN-3 cells = test: Antiproliferative activity on JJN-3 (NIK translocated) multiple myeloma cells (CellTiter-Glo); assay type: cell-based, human; conditions: Homo sapiens, JJN-3, 96 h, JJN-3 (NIK translocated) cells, 96 hr; averaged values; read-out: JJN-3 Proliferation inhibition (IC50 (nM))
Procedure, shortened: (§1)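 Viability was read by CellTiter-Glo after 96 hr compound exposure (9-point, 1:3 serial dilutions; 0.3% DMSO final). JJN-3 and KMS12-BM cells were seeded at 15000 and 20000 per well respectively in RPMI 1640/10% FCS; blank-subtracted signals were given as percent of drug-free controls.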

[2] = target: recombinant human NF-kappaB-inducing kinase (NIK/MAP3K14) (Homo sapiens (Human), UniProt Q99558); test: Inhibition of auto-phosphorylation of recombinant human NIK/MAP3K14 activity (AlphaScreen); assay type: biochemical; conditions: averaged values over all measurements on all batches
Chain of recombinant human NF-kappaB-inducing kinase (NIK/MAP3K14) (Q99558 whole entry): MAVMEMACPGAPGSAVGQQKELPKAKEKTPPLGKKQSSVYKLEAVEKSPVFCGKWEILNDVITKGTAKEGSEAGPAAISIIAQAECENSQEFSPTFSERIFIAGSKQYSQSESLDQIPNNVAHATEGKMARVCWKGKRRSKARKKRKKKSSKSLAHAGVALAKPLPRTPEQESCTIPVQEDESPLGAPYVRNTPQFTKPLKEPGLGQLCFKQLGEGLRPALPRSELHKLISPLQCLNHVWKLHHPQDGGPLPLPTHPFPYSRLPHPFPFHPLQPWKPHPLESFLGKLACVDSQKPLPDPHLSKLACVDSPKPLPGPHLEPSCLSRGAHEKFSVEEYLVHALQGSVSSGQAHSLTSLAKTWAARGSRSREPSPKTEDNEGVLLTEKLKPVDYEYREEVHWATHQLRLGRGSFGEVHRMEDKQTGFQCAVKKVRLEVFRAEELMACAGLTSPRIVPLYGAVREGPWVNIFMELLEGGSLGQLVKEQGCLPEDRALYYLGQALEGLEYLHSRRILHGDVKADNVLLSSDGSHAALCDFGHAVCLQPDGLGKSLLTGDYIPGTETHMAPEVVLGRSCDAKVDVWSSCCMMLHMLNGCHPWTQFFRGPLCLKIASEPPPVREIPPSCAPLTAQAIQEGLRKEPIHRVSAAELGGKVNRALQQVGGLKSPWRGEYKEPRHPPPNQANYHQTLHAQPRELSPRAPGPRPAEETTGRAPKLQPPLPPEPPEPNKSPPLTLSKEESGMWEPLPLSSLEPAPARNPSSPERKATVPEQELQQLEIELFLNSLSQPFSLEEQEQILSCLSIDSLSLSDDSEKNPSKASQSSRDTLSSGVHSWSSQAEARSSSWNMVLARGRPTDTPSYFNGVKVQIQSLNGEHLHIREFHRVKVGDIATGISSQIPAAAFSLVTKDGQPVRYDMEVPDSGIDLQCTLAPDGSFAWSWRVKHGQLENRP
Procedure, shortened: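 AlphaScreen read-out, using anti-phospho-IKK Ser176/180 antibody, tracked NIK autophosphorylation after 1 h at 25° C. Reactions held 0.2 nM GST-NIK, 25 microM ATP and compound in 1% DMSO, Tris pH 7.5 buffer. IC50 fitted sigmoidally to blank-subtracted inhibition data.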

KMS12-BM cells = test: Antiproliferative activity on KMS12-BM (NIK WT) multiple myeloma cells (CellTiter-Glo); assay type: cell-based, human; conditions: Homo sapiens, KMS-12-BM, 96 h, KMS12-BM (NIK WT) cells, 96 hr; averaged values; read-out: KMS-12 Proliferation inhibition (IC50 (nM))
Procedure, shortened: as §1

IC50 [1] [nM] | IC50 (JJN-3 cells) [nM] | IC50 [2] [nM] | IC50 (KMS12-BM cells) [nM] | Compound
15 | 871 | 2.6 | ~3720 | CN(C)C(=O)c1cc(Nc2nccc(-c3cc(C#N)c4c(c3)C(C)(CO)CN4)n2)n(C)n1 (stereo not drawn) [Compound 86]
562 | 724 | 7.2 | > 10000 | Cc1cc(Nc2nccc(-c3cc(C#N)c4c(c3)C(C)(CO)CN4)n2)n(CC2CCN(CC(=O)N(C)C)CC2)n1 (stereo not drawn) [Compound 136]
107 | 47 | 4.8 | 2240 | C[C@]1(CO)CNc2c(C#N)cc(-c3ccnc(Nc4cc(Cl)nn4CC4CCN(CCF)CC4)n3)cc21 [Compound 134]
65 | 389 | 6.9 | 6610 | C[C@]1(CO)CNc2c(C#N)cc(-c3ccnc(Nc4cc(Cl)nn4C[C@H]4COCCO4)n3)cc21 [Compound 133]
178 | 44 | 8.3 | 2570 | COCCN1CCC(Cn2nc(Cl)cc2Nc2nccc(-c3cc(C#N)c4c(c3)[C@@](C)(CO)CN4)n2)CC1 [Compound 138]
~331 | 355 | 9.3 | 5130 | Cc1cc(Nc2nccc(-c3cc(C#N)c4c(c3)[C@@](C)(CO)CN4)n2)n(CC2(C)COC2)n1 [Compound 111]
